Results published in article PMC8907207, “Multiplex quantification of C-terminal alpha-1-antitrypsin peptides provides a novel approach for characterizing systemic inflammation” (Scientific Reports, 2022).
Ends that are not written are not given here.

How the values were obtained:
[1] = Freeze/thaw stability of QC samples; format: in vitro ADME; details: QC in 70 g/L albumin in PBS, two cycles of freezing and thawing, LC-MS/MS
Description: (§1) Stability of analytes in processed samples was determined at six independent days for a time span of 20 h in the autosampler. Deviations of standing samples to freshly measured samples were below 19% at the LLOQ and below 9% for other QC levels for each analyte, respectively (Additional file 4). Stability of analytes in biological matrix was determined by consecutive cycles of freezing and thawing as well as extended intervals at room temperature from thawing to processing (approximately one hour).
(§2) Lyophilized authentic peptide standards were dissolved and diluted in a 70 g/L Albumin (from human serum, lyophilized, ≥ 99%, Sigma-Aldrich) in PBS (Sigma-Aldrich, St. Louis, MO, USA) solution. Internal standards C37^IS and C42^IS were dissolved in Milli-Q water (Millipore, Brussels, Belgium) containing 0.1% (v/v) formic acid (≥ 95%, Sigma-Aldrich) whereas C22^IS was only dissolved in ultrapure water. Mixtures of CAAPs used as calibration standards (calibrants) and quality control samples (QCs) were prepared as stock solution to a final concentration of 14 µM, respectively, (expect C40^SNP which was 5 µM) with subsequent serial dilutions. Calibrants and QCs were obtained from separate serial dilutions. Internal standard solution was prepared by adding equal volumes of each IS yielding a final concentration of 0.8 µM, respectively. All samples used for method development and validation were prepared and stored in 0.5 mL Protein LoBind Tubes (Eppendorf AG, Hamburg, Germany) in aliquots at − 80 °C until use.
(§3) Working range of calibrants was defined based on CAAPs detected in samples from healthy donors (set to approximate lower limit of quantification) and in samples from septic patients (set to middle to high calibration range) which were re-analyzed from a previously work[46]. Nine calibrants were used in total ranging from 0.01 µM to 1.5 µM thereby covering more than two orders of magnitude in concentration. Linearity was assessed determining mean linear regression coefficients of each calibration curve from 0.01 to 1.5 µM in eight independent analytical runs. However, respective LLOQs (lower limit of quantification) and ULOQs (upper limit of quantification) were defined individually based on natural occurrence (see above) and results from validation parameter directly affected individual working ranges (carry-over, specificity). Four QC samples were prepared and measured in total (QC1, QC2, QC3, and QC4) to cover the entire range of calibration. However, three QCs for each of the respective analytes were used for method validation. Carry-over was determined measuring pure albumin solutions prepared without internal standards (but equal amount and concentration of water/formic acid solution as regular internal standard solution, “blank albumin sample”) directly after the respective highest calibrants. Peak areas were compared to peak areas from respective LLOQ samples (prepared with regular internal standard solution). Specificity was assessed using single compounds at respective highest calibrant level which were prepared and calculated as described for carry-over. The specificity of analytes towards internal standards was determined using pure albumin solution with internal standard (“zero albumin sample”). Accuracy and precision was determined by back-calculated concentrations from repeated measurements of the same QC samples during one analytical run (within-run repeatability, n = 5) and from freshly prepared samples during five independent analytical runs (between-run, n = 5). Due to the unavailability of analyte-free biological matrix, selectivity of analytes were assessed in pure albumin solution containing internal standards. Matrix effects were determined calculating recovery rates and precision of each compound in human blood samples. Direct comparison between different anticoagulants (EDTA, lithium-heparin) and serum was performed using whole blood from the same human donor. […]

[2] = Benchtop stability of QC samples at room temperature; format: in vitro ADME; details: QC in 70 g/L albumin in PBS, 60 min. at room temperature, LC-MS/MS
Description: as §1, §2, §3

[3] = QC2 (0.025 µM; C40^SNP see Table 1)
[4] = QC3 (0.3 µM; C40^SNP 0.1073 µM)

Sequence: SIPPEVKFNKPFVFLMIDQNTKSPLFMGKVVNPTQK [C36^SNP]
- freeze/ thaw stability, accuracy (mean of n=3) [1, 3]: 104%
- freeze/ thaw stability, deviation from freshly processed QCs (mean of n=3) [1, 3]: 2%
- freeze/ thaw stability, accuracy (mean of n=3) [1, 4]: 99%
- freeze/ thaw stability, deviation from freshly processed QCs (mean of n=3) [1, 4]: -2%
- benchtop stability, accuracy (mean of n=3) [2, 3]: 101%
- benchtop stability, deviation from freshly processed QCs (mean of n=3) [2, 3]: -1%
- benchtop stability, accuracy (mean of n=3) [2, 4]: 98%
- benchtop stability, deviation from freshly processed QCs (mean of n=3) [2, 4]: -2%

Sequence: SIPPEVKFNKPFVFLMIEQNTKSPLFMGKVVNPTQK [C36^WT]
- freeze/ thaw stability, accuracy (mean of n=3) [1, 3]: 106%
- freeze/ thaw stability, deviation from freshly processed QCs (mean of n=3) [1, 3]: 4%
- freeze/ thaw stability, accuracy (mean of n=3) [1, 4]: 98%
- freeze/ thaw stability, deviation from freshly processed QCs (mean of n=3) [1, 4]: -1%
- benchtop stability, accuracy (mean of n=3) [2, 3]: 106%
- benchtop stability, deviation from freshly processed QCs (mean of n=3) [2, 3]: 4%
- benchtop stability, accuracy (mean of n=3) [2, 4]: 98%
- benchtop stability, deviation from freshly processed QCs (mean of n=3) [2, 4]: -1%
